# According to patent US20180215727A1, “LYSYL OXIDASE-LIKE 2 INHIBITORS AND USES THEREOF” (PharmAkea, Inc., priority 2015, published 2018):
# Structures can show the parent of a compound that is named as a salt.
# Biological target: T1, human LOXL2 (Homo sapiens, UniProt Q9Y4K0)
# T1 construct: expressed in transfected cells; secreted protein in 10-20x concentrated conditioned media
# T1 sequence (Q9Y4K0 26-774): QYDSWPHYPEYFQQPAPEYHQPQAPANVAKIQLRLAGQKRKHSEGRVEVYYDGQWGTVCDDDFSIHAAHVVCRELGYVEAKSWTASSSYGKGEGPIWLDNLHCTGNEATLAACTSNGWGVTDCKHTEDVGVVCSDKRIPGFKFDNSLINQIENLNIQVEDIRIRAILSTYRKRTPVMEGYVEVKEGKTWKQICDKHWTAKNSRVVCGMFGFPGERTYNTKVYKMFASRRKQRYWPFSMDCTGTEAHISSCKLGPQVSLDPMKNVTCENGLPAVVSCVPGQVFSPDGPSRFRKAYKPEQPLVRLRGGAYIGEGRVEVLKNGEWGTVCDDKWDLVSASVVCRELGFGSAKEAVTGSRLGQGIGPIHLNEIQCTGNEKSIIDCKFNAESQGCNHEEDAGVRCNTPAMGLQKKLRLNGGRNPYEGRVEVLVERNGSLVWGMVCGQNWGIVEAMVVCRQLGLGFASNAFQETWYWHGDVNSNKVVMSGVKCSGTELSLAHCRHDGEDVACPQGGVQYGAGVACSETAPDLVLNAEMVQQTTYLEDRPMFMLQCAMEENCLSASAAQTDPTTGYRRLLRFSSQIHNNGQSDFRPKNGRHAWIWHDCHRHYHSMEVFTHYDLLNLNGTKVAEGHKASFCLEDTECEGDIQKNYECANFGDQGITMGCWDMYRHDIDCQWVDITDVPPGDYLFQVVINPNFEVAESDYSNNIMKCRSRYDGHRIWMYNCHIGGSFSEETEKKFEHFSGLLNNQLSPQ
# Assay: Human LOXL2 Amine Oxidase Activity Assay (Amplex Red fluorescence)
# Assay type: biochemical
# Details: concentrated conditioned media from CHO cells stably expressing human LOXL2, test compound incubated 2 h at 37° C., pH8, DAP substrate
# Method: Example B-1: Human LOXL2 Amine Oxidase Activity Assay
# LOXL2 amine oxidase activity is evaluated by measuring Amplex Red fluorescence using 10-20× concentrated conditioned media from CHO cells stably expressing human LOXL2. To assay for amine oxidase activity, 10 μL of the concentrated conditioned media is incubated with 2 μL of test compound in DMSO and 73 μL Assay Buffer (50 mM Borate Buffer, pH8) for 2 h at 37° C. After the 2 h incubation, 5 μl of 10 mM 1,5-Diaminopentane (DAP) diluted in Assay Buffer and 10 μl of Amplex Red Mix (8.5 μl Assay Buffer+0.5 μl of 10 mM Amplex Red+1 μl of 500 U/ml Horseradish Peroxidase) are added and the plate mixed and immediately placed on the FlexStaion for fluorescence measurements. Fluorescence is read in kinetic mode every 2 min for 1 hour at excitation=544 and emission=590. The amine oxidase activity is calculated from the slope of the linear portion of the curve.
row,SMILES,IC50
1,"NCc1cc(=O)c2cccc(OCc3cccc(C(=O)Nc4ccccc4)c3)c2o1 [Compound 1-58, 3-(((2-(Aminomethyl)-4-oxo-4H-chromen-8-yl)oxy)methyl)-N-phenylbenzamide hydrochloride]",> 1000 nM
2,"NCc1cc(=O)c2cc(C(=O)NCCO)ccc2o1 [Compound 1-59, 2-(Aminomethyl)-N-(2-hydroxyethyl)-4-oxo-4H-chromene-6-carboxamide hydrochloride]",300 to 1000 nM
3,"NCc1cc(=O)c2cc(C(=O)N3C[C@H](O)[C@@H](F)C3)ccc2o1 [Compound 1-60, 2-(Aminomethyl)-6-((3S,4S)-3-fluoro-4-hydroxypyrrolidine-1-carbonyl)-4H-chromen-4-one hydrochloride]",300 to 1000 nM
4,"NCc1cc(=O)c2cc(C(=O)N3C[C@@H](O)[C@H](F)C3)ccc2o1 [Compound 1-61, 2-(Aminomethyl)-6-((3R,4R)-3-fluoro-4-hydroxypyrrolidine-1-carbonyl)-4H-chromen-4-one hydrochloride]",300 to 1000 nM
5,"NCc1cc(=O)c2ccc(Oc3cccc(C(F)(F)F)c3)cc2o1 [Compound 1-67, 2-(Aminomethyl)-7-(3-(trifluoromethyl)phenoxy)-4H-chromen-4-one hydrochloride]",< 300 nM
6,"NCc1cc(=O)c2ccc(Oc3ccccc3)cc2o1 [Compound 1-68, 2-(Aminomethyl)-7-phenoxy-4H-chromen-4-one hydrochloride]",< 300 nM
7,"COc1cc2c(=O)cc(CN)oc2cc1OCc1ccccc1 [Compound 1-69, 2-(Aminomethyl)-7-(benzyloxy)-6-methoxy-4H-chromen-4-one hydrochloride]",< 300 nM
8,"NCc1cc(=O)c2ccc(Nc3cnn(-c4ccccc4)c3)cc2o1 [Compound 1-70, 2-(Aminomethyl)-7-((1-phenyl-1H-pyrazol-4-yl)amino)-4H-chromen-4-one hydrochloride]",< 300 nM

# Results, then the molecule that gave them:
row,IC50,SMILES
1,< 300 nM,"NCc1cc(=O)c2ccc(OCc3ccc(C(F)(F)F)cc3)cc2o1 [Compound 1-62, 2-(Aminomethyl)-7-((4-(trifluoromethyl)benzyl)oxy)-4H-chromen-4-one hydrochloride]"
2,< 300 nM,"NCc1cc(=O)c2ccc(OCC#Cc3ccccc3)cc2o1 [Compound 1-63, 2-(Aminomethyl)-7-((3-phenylprop-2-yn-1-yl)oxy)-4H-chromen-4-one hydrochloride]"
3,< 300 nM,"COc1ccc(COc2ccc3c(=O)cc(CN)oc3c2)cc1 [Compound 1-64, 2-(Aminomethyl)-7-((4-methoxybenzyl)oxy)-4H-chromen-4-one]"
4,< 300 nM,"NCc1cc(=O)c2ccc(OCc3ccc4ccccc4n3)cc2o1 [Compound 1-65, 2-(Aminomethyl)-7-(quinolin-2-ylmethoxy)-4H-chromen-4-one hydrochloride]"
5,< 300 nM,"NCc1cc(=O)c2ccc(OCc3cc4ccccc4s3)cc2o1 [Compound 1-66, 2-(Aminomethyl)-7-(benzo[b]thiophen-2-ylmethoxy)-4H-chromen-4-one hydrochloride]"
